Where a SMILES comes first, the peptide text is derived from it. Bridges are numbered along the chain shown (N, C = ends). [ ]: non-standard residue; d: D form. The star is where a group is joined. ξ: configuration not given here. Phe(4-COOH) = N[C@@H](Cc1ccc(C(=O)O)cc1)C(=O)O; Bip = N[C@@H](Cc1ccc(-c2ccccc2)cc1)C(=O)O; Phe(3-Me) = Cc1cccc(C[C@H](N)C(=O)O)c1; Val(3-OH) = CC(C)(O)[C@H](N)C(=O)O; Cha = N[C@@H](CC1CCCCC1)C(=O)O; Carboxymethyl = O=C(O)C*; NMeA = CN[C@@H](C)C(=O)O; Aun = NCCCCCCCCCCC(=O)O; Dab = NCC[C@H](N)C(=O)O; AEEA = NCCOCCOCC(=O)O; ξDab = NCCC(N)C(=O)O
Target: T1, PD-1/PD-L1 interaction (PE-labeled human PD-L1-Ig binding to Jurkat cell line over-expressing human PD-1) (Homo sapiens, UniProt Q15116)
T1 construct: expressed in transfected cells; host or cells: Jurkat
Assay: Jurkat-PD-1 Cell Binding High-Content Screening Assay (CBA)
Conditions: Jurkat-hPD-1 cells, PE-labeled PD-L1-Ig 20 nM final; read-out: Jurkat HPD1 PDL1 IC50
Outline: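 Compound is added first to the PD-1-expressing Jurkat cells and held 2 h at 37 °C in serum-containing DMEM. The fluorescent PD-L1 fusion follows at 20 nM final for 1 h. Fixed, Hoechst-stained cells are then imaged for bound label.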

T1 sequence (Q15116 25-288): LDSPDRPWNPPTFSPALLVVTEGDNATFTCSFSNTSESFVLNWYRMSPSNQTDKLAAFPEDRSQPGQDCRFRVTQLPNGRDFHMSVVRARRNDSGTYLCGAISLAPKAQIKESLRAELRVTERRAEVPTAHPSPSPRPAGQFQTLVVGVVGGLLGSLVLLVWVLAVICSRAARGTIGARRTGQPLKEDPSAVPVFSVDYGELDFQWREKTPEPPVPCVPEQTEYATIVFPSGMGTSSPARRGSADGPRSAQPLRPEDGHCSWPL

| Compound | IC50 [nM] |
| --- | --- |
| Cc1cccc(C[C@@H]2NC(=O)[C@H](CC(=O)O)NC(=O)[C@H](Cc3ccc(OCC(=O)O)cc3)NC(=O)[C@H]([C@@H](C)O)NC(=O)CSC[C@@H](C(=O)N[C@@H](CCN)C(=O)NCCCCCCCCCCC(=O)O)NC(=O)[C@H](CCC(=O)O)NC(=O)[C@H](C(C)(C)O)NC(=O)[C@H](CC3CCCCC3)NC(=O)[C@H](CCN)NC(=O)[C@@H](CC(C)C)NC(=O)[C@H](C)N(C)C(=O)[C@H](Cc3ccc(OCC(=O)O)cc3)NC(=O)[C@H](Cc3ccc(-c4ccccc4)cc3)NC(=O)[C@H](Cc3ccc(OCC(=O)O)cc3)NC2=O)c1 [Example 1418] ({CH2CO}-TY(Carboxymethyl)D[Phe(3-Me)]Y(Carboxymethyl)[Bip]Y(Carboxymethyl)[NMeA][dL][Dab][Cha][Val(3-OH)]EC[Dab][Aun]-OH; thioether N-14) | 37.1 |
| Cc1cccc(C[C@@H]2NC(=O)[C@H](CC(=O)O)NC(=O)[C@H](Cc3ccc(OCC(=O)O)cc3)NC(=O)[C@H]([C@@H](C)O)NC(=O)CSC[C@@H](C(=O)N[C@@H](CC(N)=O)C(=O)NCCCCCCCCCCC(=O)O)NC(=O)[C@H](CCC(=O)O)NC(=O)[C@H](C(C)(C)O)NC(=O)[C@H](CC3CCCCC3)NC(=O)[C@H](CCN)NC(=O)[C@@H](CC(C)C)NC(=O)[C@H](C)N(C)C(=O)[C@H](Cc3ccc(OCC(=O)O)cc3)NC(=O)[C@H](Cc3ccc(-c4ccccc4)cc3)NC(=O)[C@H](Cc3ccc(OCC(=O)O)cc3)NC2=O)c1 [Example 1419] ({CH2CO}-TY(Carboxymethyl)D[Phe(3-Me)]Y(Carboxymethyl)[Bip]Y(Carboxymethyl)[NMeA][dL][Dab][Cha][Val(3-OH)]ECN[Aun]-OH; thioether N-14) | 186 |
| Cc1cccc(C[C@@H]2NC(=O)[C@H](CC(=O)O)NC(=O)[C@H](Cc3ccc(OCC(=O)O)cc3)NC(=O)[C@H]([C@@H](C)O)NC(=O)CSC[C@@H](C(=O)N[C@H](CC(N)=O)C(=O)NCCCCCCCCCCC(=O)O)NC(=O)[C@H](CCC(=O)O)NC(=O)[C@H](C(C)(C)O)NC(=O)[C@H](CC3CCCCC3)NC(=O)[C@H](CCN)NC(=O)[C@@H](CC(C)C)NC(=O)[C@H](C)N(C)C(=O)[C@H](Cc3ccc(OCC(=O)O)cc3)NC(=O)[C@H](Cc3ccc(-c4ccccc4)cc3)NC(=O)[C@H](Cc3ccc(OCC(=O)O)cc3)NC2=O)c1 [Example 1420] ({CH2CO}-TY(Carboxymethyl)D[Phe(3-Me)]Y(Carboxymethyl)[Bip]Y(Carboxymethyl)[NMeA][dL][Dab][Cha][Val(3-OH)]EC[dN][Aun]-OH; thioether N-14) | 116 |
| Cc1cccc(C[C@@H]2NC(=O)[C@H](CC(=O)O)NC(=O)[C@H](Cc3ccc(OCC(=O)O)cc3)NC(=O)[C@H]([C@@H](C)O)NC(=O)CSC[C@@H](C(=O)N[C@H](C)C(=O)NCCCCCCCCCCC(=O)O)NC(=O)[C@H](CCC(=O)O)NC(=O)[C@H](C(C)(C)O)NC(=O)[C@H](CC3CCCCC3)NC(=O)[C@H](CCN)NC(=O)[C@@H](CC(C)C)NC(=O)[C@H](C)N(C)C(=O)[C@H](Cc3ccc(OCC(=O)O)cc3)NC(=O)[C@H](Cc3ccc(-c4ccccc4)cc3)NC(=O)[C@H](Cc3ccc(OCC(=O)O)cc3)NC2=O)c1 [Example 1421] ({CH2CO}-TY(Carboxymethyl)D[Phe(3-Me)]Y(Carboxymethyl)[Bip]Y(Carboxymethyl)[NMeA][dL][Dab][Cha][Val(3-OH)]EC[dA][Aun]-OH; thioether N-14) | 240 |

Second part, the molecule after the results:

| IC50 [nM] | Compound |
| --- | --- |
| 172 | Cc1cccc(C[C@@H]2NC(=O)[C@H](CC(=O)O)NC(=O)[C@H](Cc3ccc(OCC(=O)O)cc3)NC(=O)[C@H]([C@@H](C)O)NC(=O)CSC[C@@H](C(=O)N[C@@H](CC(N)=O)C(=O)NCCOCCOCC(=O)NCCCCCCCCCCC(=O)O)NC(=O)[C@H](CCC(=O)O)NC(=O)[C@H](C(C)(C)O)NC(=O)[C@H](CC3CCCCC3)NC(=O)[C@H](CCN)NC(=O)[C@@H](CC(C)C)NC(=O)[C@H](C)N(C)C(=O)[C@H](Cc3ccc(OCC(=O)O)cc3)NC(=O)[C@H](Cc3ccc(-c4ccccc4)cc3)NC(=O)[C@H](Cc3ccc(OCC(=O)O)cc3)NC2=O)c1 [Example 1415] ({CH2CO}-TY(Carboxymethyl)D[Phe(3-Me)]Y(Carboxymethyl)[Bip]Y(Carboxymethyl)[NMeA][dL][Dab][Cha][Val(3-OH)]ECN[AEEA][Aun]-OH; thioether N-14) |
| 311 | Cc1cccc(C[C@@H]2NC(=O)[C@H](CC(=O)O)NC(=O)[C@H](Cc3ccc(OCC(=O)O)cc3)NC(=O)[C@H]([C@@H](C)O)NC(=O)CSC[C@@H](C(=O)N[C@H](CC(N)=O)C(=O)NCCOCCOCC(=O)NCCCCCCCCCCC(=O)O)NC(=O)[C@H](CCC(=O)O)NC(=O)[C@H](C(C)(C)O)NC(=O)[C@H](CC3CCCCC3)NC(=O)[C@H](CCN)NC(=O)[C@@H](CC(C)C)NC(=O)[C@H](C)N(C)C(=O)[C@H](Cc3ccc(OCC(=O)O)cc3)NC(=O)[C@H](Cc3ccc(-c4ccccc4)cc3)NC(=O)[C@H](Cc3ccc(OCC(=O)O)cc3)NC2=O)c1 [Example 1416] ({CH2CO}-TY(Carboxymethyl)D[Phe(3-Me)]Y(Carboxymethyl)[Bip]Y(Carboxymethyl)[NMeA][dL][Dab][Cha][Val(3-OH)]EC[dN][AEEA][Aun]-OH; thioether N-14) |
| 379 | Cc1cccc(C[C@@H]2NC(=O)[C@H](CC(=O)O)NC(=O)[C@H](Cc3ccc(OCC(=O)O)cc3)NC(=O)[C@H]([C@@H](C)O)NC(=O)CSC[C@@H](C(=O)N[C@H](C)C(=O)NCCOCCOCC(=O)NCCCCCCCCCCC(=O)O)NC(=O)[C@H](CCC(=O)O)NC(=O)[C@H](C(C)(C)O)NC(=O)[C@H](CC3CCCCC3)NC(=O)[C@H](CCN)NC(=O)[C@@H](CC(C)C)NC(=O)[C@H](C)N(C)C(=O)[C@H](Cc3ccc(OCC(=O)O)cc3)NC(=O)[C@H](Cc3ccc(-c4ccccc4)cc3)NC(=O)[C@H](Cc3ccc(OCC(=O)O)cc3)NC2=O)c1 [Example 1417] ({CH2CO}-TY(Carboxymethyl)D[Phe(3-Me)]Y(Carboxymethyl)[Bip]Y(Carboxymethyl)[NMeA][dL][Dab][Cha][Val(3-OH)]EC[dA][AEEA][Aun]-OH; thioether N-14) |
| 20.2 | Cc1cccc(C[C@@H]2NC(=O)[C@H](CC(=O)O)NC(=O)[C@H](Cc3ccc(OCC(=O)O)cc3)NC(=O)[C@H]([C@@H](C)O)NC(=O)CSC[C@@H](C(=O)N[C@@H](CCN)C(=O)NCCCCCCCCCCC(=O)O)NC(=O)[C@H](CCC(=O)O)NC(=O)[C@H](C(C)C)NC(=O)[C@H](CC3CCCCC3)NC(=O)[C@H](CCN)NC(=O)[C@@H](CC(C)C)NC(=O)[C@H](C)N(C)C(=O)[C@H](Cc3ccc(OCC(=O)O)cc3)NC(=O)[C@H](Cc3ccc(-c4ccccc4)cc3)NC(=O)[C@H](Cc3ccc(OCC(=O)O)cc3)NC2=O)c1 [Example 1422] ({CH2CO}-TY(Carboxymethyl)D[Phe(3-Me)]Y(Carboxymethyl)[Bip]Y(Carboxymethyl)[NMeA][dL][Dab][Cha]VEC[Dab][Aun]-OH; thioether N-14) |
| 28.1 | Cc1cccc(C[C@@H]2NC(=O)[C@H](CC(=O)O)NC(=O)[C@H](Cc3ccc(OCC(=O)O)cc3)NC(=O)[C@H]([C@@H](C)O)NC(=O)CSC[C@@H](C(=O)NC(CCN)C(=O)NCCOCCOCC(=O)NCCCCCCCCCCC(=O)O)NC(=O)[C@H](CCC(=O)O)NC(=O)[C@H](C(C)(C)O)NC(=O)[C@H](CC3CCCCC3)NC(=O)[C@H](CCN)NC(=O)[C@@H](CC(C)C)NC(=O)[C@H](C)N(C)C(=O)[C@H](Cc3ccc(OCC(=O)O)cc3)NC(=O)[C@H](Cc3ccc(-c4ccccc4)cc3)NC(=O)[C@H](Cc3ccc(C(=O)O)cc3)NC2=O)c1 (stereo partly drawn) [Example 1423] ({CH2CO}-TY(Carboxymethyl)D[Phe(3-Me)][Phe(4-COOH)][Bip]Y(Carboxymethyl)[NMeA][dL][Dab][Cha][Val(3-OH)]EC[ξDab][AEEA][Aun]-OH; thioether N-14) |

— US20260070945A1, “MACROCYCLIC IMMUNOMODULATORS” (Bristol-Myers Squibb Company, priority 2022, published 2026)
